Assay results published in patent US12180187B2, “1-phenyl-5-azinylpyrazolyl-3-oxyalkyl acids and their use for controlling unwanted plant growth” (BAYER AKTIENGESELLSCHAFT, priority 2019, dated 2024).
Several values for one entry are separate records, joined by “and”; a condition that tells them apart may be missing. Equal entries are not always repeated.

Columns and labels:
AMARE [1] = test: Pre-emergence action against AMARE, 1280 g/ha; format: in vivo, Amaranthus retroflexus; details: scored visually after about 3 weeks vs untreated controls (100% = plants have died); for pest or weed control at 1280 g/ha: Amaranthus retroflexus, 504 h
Outline: (§1)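 Soil-surface application after sowing, before emergence: WP or EC formulations in water with 0.5% additive, 600 litres per hectare, onto sandy loam pots. Damage rated visually in % relative to untreated plants after roughly 3 weeks in a greenhouse.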

SETVI [2] = test: Pre-emergence action at 320 g/ha against SETVI; format: in vivo, Setaria viridis; details: visual scoring after about 3 weeks vs untreated controls; for pest or weed control at 320 g/ha: Setaria viridis, 504 h
Outline: (§2)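 Pre-emergence soil-surface spray: WP or EC formulation, aqueous, 0.5% additive, 600 l/ha water volume. Greenhouse growth about 3 weeks; visual percent effect relative to untreated pots.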

LOLRI = test: Post-emergence action against LOLRI, 1.28 kg/ha; format: in vivo, Lolium rigidum; details: dosage 1280 g/ha, visual rating about 3 weeks after treatment vs untreated controls
Outline: (§3)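 Percent activity was scored visually ~3 wk post-spray relative to untreated plants. Treatment was post-emergence at the one-leaf stage using WP/EC in water with 0.5% additive (600 L/ha).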

POAAN [3] = test: Pre-emergence action against POAAN, 1280 g/ha; format: in vivo, Poa annua; details: visual scoring after about 3 weeks vs untreated controls, 100% = plants have died, 0% = like control plants; for pest or weed control at 1280 g/ha: Poa annua, 504 h
Outline: as §1

SETVI [4] = test: Pre-emergence action against SETVI, 1280 g/ha; format: in vivo, Setaria viridis; details: visual scoring after about 3 weeks vs untreated controls, 100% = plants have died, 0% = like control plants; for pest or weed control at 1280 g/ha: Setaria viridis, 504 h
Outline: as §1

POAAN [5] = test: Post-emergence action against POAAN, 1.28 kg/ha; format: in vivo, Poa annua; details: dosage 1280 g/ha, visual rating about 3 weeks after treatment vs untreated controls; for pest or weed control at 1280 g/ha: Poa annua, 504 h
Outline: as §3

MATIN = test: Pre-emergence action against MATIN, 1280 g/ha; format: in vivo, Tripleurospermum inodorum (Matricaria inodora); details: scored visually after about 3 weeks vs untreated controls (100% = plants have died); for pest or weed control at 1280 g/ha: Tripleurospermum inodorum, 504 h
Outline: as §1

VERPE = test: Pre-emergence action against VERPE, 1280 g/ha; format: in vivo, Veronica persica; details: scored visually after about 3 weeks vs untreated controls (100% = plants have died); for pest or weed control at 1280 g/ha: Veronica persica, 504 h
Outline: as §1

ECHCG = test: Pre-emergence action against ECHCG, 1280 g/ha; format: in vivo, Echinochloa crus-galli; details: visual scoring after about 3 weeks vs untreated controls, 100% = plants have died, 0% = like control plants; for pest or weed control at 1280 g/ha: Echinochloa crus-galli, 504 h
Outline: as §1

DIGSA = test: Pre-emergence action at 320 g/ha against DIGSA; format: in vivo, Digitaria sanguinalis; details: visual scoring after about 3 weeks vs untreated controls; for pest or weed control at 320 g/ha: Digitaria sanguinalis, 504 h
Outline: as §2

STEME = test: Pre-emergence action against STEME, 1280 g/ha; format: in vivo, Stellaria media; details: scored visually after about 3 weeks vs untreated controls (100% = plants have died); for pest or weed control at 1280 g/ha: Stellaria media, 504 h
Outline: as §1

ALOMY = test: Pre-emergence action at 320 g/ha against ALOMY; format: in vivo, Alopecurus myosuroides; details: scored visually after about 3 weeks vs untreated controls (100% = plants have died); for pest or weed control at 320 g/ha: Alopecurus myosuroides, 504 h
Outline: as §2

SETVI [6] = test: Post-emergence action against SETVI, 1.28 kg/ha; format: in vivo, Setaria viridis; details: dosage 1280 g/ha, visual rating about 3 weeks after treatment vs untreated controls
Outline: as §3

AMARE [7] = test: Pre-emergence action at 320 g/ha against AMARE; format: in vivo, Amaranthus retroflexus; details: visual scoring after about 3 weeks vs untreated controls; for pest or weed control at 320 g/ha: Amaranthus retroflexus, 504 h
Outline: as §2

POLCO = test: Pre-emergence action at 320 g/ha against POLCO; format: in vivo, Fallopia convolvulus (Polygonum convolvulus); details: visual scoring after about 3 weeks vs untreated controls; for pest or weed control at 320 g/ha: Fallopia convolvulus, 504 h
Outline: as §2

AVEFA = test: Pre-emergence action at 320 g/ha against AVEFA; format: in vivo; details: visual scoring after about 3 weeks vs untreated controls; for pest or weed control at 320 g/ha: Avena fatua, 504 h
Outline: as §2

Row | SMILES | pest or weed control at 1280 g/ha (AMARE [1]) [%] | pest or weed control at 320 g/ha (SETVI [2]) [%] | Post-emergence action against LOLRI (LOLRI) [%] | pest or weed control at 1280 g/ha (POAAN [3]) [%] | pest or weed control at 1280 g/ha (SETVI [4]) [%] | Post-emergence action against SETVI (SETVI [6]) | Pre-emergence action against AMARE (AMARE [1]) [%] | Pre-emergence action against SETVI in % (SETVI [2]) [%] | Pre-emergence action against POAAN (POAAN [3]) [%] | Pre-emergence action against SETVI (SETVI [4]) [%] | Post-emergence action against POAAN (POAAN [5]) [%] | Pre-emergence action against MATIN (MATIN) [%] | Pre-emergence action against VERPE (VERPE) [%] | Pre-emergence action against ECHCG (ECHCG) [%] | Pre-emergence action against DIGSA in % (DIGSA) [%] | Pre-emergence action against STEME (STEME) [%] | Pre-emergence action at 320 g/ha against ALOMY in % (ALOMY) [%] | Pre-emergence action against AMARE in % (AMARE [7]) [%] | Pre-emergence action against POLCO in % (POLCO) [%] | Pre-emergence action against AVEFA in % (AVEFA) [%] | also measured
1 | O=C(O)COc1nn(-c2ccccc2F)c(-c2ccc(F)nc2)c1Br [VII-003, {[4-Bromo-1-(2-fluorophenyl)-5-(6-fluoropyridin-3-yl)-1H-pyrazol-3-yl]oxy}acetic acid] | 100 | 100 | 100 | 100 | 100 | 90% | – | – | – | – | – | – | – | – | – | – | – | – | – | – | pest or weed control at 1280 g/ha (POAAN [5]): 100%; pest or weed control at 1280 g/ha (MATIN): 100%; pest or weed control at 1280 g/ha (VERPE): 90%; pest or weed control at 1280 g/ha (ECHCG): 100%; pest or weed control at 320 g/ha (DIGSA): 100%; pest or weed control at 1280 g/ha (STEME): 100%; pest or weed control at 320 g/ha (ALOMY): 100%; pest or weed control at 320 g/ha (AMARE [7]): 100%; pest or weed control at 320 g/ha (POLCO): 90%; pest or weed control at 320 g/ha (AVEFA): 90%
2 | COC(=O)[C@@H](C)Oc1nn(-c2ccccc2)c(-c2cccnc2)c1Br [VII-008] | – | – | 100 | – | – | 90% | 100 | 100 | 100 | 100 | 100 | 100 | 100 | 100 | 90 | 100 | 100 | 100 | 100 | 80 | –
3 | CCOC(=O)COc1nn(-c2ccccc2F)c(-c2ccc(F)nc2)c1Br [VII-012, Ethyl {[4-bromo-1-(2-fluorophenyl)-5-(6-fluoropyridin-3-yl)-1H-pyrazol-3-yl]oxy}acetate] | 100 | 100 | 100 | 100 | 100 | 100% and 90% | – | – | – | – | – | – | – | – | – | – | – | – | – | – | pest or weed control at 1280 g/ha (POAAN [5]): 100%; pest or weed control at 1280 g/ha (MATIN): 100%; pest or weed control at 1280 g/ha (VERPE): 100%; pest or weed control at 1280 g/ha (ECHCG): 100%; pest or weed control at 320 g/ha (DIGSA): 100%; pest or weed control at 1280 g/ha (STEME): 90%; pest or weed control at 320 g/ha (ALOMY): 100%; pest or weed control at 320 g/ha (AMARE [7]): 100%; pest or weed control at 320 g/ha (POLCO): 90%; pest or weed control at 320 g/ha (AVEFA): 90%
4 | CCOC(=O)COc1nn(-c2ccccc2F)c(-c2cncc(F)c2)c1Br [VII-015] | – | – | 100 | – | – | 90% | 100 | 100 | 100 | 100 | 100 | 100 | 100 | 100 | 100 | 100 | 100 | 100 | 100 | 90 | –
5 | CCOC(=O)COc1nn(-c2ccc(F)cc2F)c(-c2ccc(F)nc2)c1Cl [VII-016] | – | – | 90 | – | – | 90% | 100 | 100 | 100 | 100 | 100 | 90 | 90 | 100 | 100 | 100 | 100 | 100 | 90 | 90 | –
